54 compounds from patent US7767815B2, “Fused tricyclic mGluR1 antagonists as therapeutic agents” (Schering Corporation, priority 2005, dated 2010) can be followed below.

Each structure is given as a SMILES string. pIC50: −log10 of the molar value.

T1 sequence (Q13255 19-1194): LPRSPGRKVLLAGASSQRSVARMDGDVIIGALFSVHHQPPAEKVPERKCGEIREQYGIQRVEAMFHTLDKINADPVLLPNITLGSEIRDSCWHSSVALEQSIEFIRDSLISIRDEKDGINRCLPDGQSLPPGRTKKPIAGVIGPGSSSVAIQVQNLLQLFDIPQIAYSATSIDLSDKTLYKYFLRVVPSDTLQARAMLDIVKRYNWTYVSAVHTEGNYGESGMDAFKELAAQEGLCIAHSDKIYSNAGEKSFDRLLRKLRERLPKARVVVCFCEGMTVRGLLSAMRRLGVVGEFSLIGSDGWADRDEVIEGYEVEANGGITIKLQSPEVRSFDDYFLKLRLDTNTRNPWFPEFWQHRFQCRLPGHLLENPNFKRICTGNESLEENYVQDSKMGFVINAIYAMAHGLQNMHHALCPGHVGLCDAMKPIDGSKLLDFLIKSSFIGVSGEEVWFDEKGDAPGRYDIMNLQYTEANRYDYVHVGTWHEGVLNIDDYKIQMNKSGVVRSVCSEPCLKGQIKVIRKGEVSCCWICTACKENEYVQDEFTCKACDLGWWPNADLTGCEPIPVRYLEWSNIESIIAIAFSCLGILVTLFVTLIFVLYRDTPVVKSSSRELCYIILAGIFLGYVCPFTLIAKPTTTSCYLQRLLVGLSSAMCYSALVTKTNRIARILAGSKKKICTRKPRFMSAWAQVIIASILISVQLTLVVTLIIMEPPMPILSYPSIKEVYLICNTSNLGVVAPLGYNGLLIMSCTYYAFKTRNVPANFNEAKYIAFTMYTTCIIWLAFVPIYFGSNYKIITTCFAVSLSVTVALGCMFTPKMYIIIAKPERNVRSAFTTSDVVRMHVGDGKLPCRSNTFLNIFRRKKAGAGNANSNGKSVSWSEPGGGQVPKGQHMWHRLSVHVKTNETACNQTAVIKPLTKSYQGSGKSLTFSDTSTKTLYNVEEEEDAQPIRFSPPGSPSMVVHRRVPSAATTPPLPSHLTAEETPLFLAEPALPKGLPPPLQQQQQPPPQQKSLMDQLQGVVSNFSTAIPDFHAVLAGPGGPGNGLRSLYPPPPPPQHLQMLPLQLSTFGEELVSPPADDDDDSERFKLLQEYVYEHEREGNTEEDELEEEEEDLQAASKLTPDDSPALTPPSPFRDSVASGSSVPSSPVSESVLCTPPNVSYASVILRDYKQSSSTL

One assay addresses T1, hmGluR1 receptor (Homo sapiens, UniProt Q13255).
T1 construct: expressed in transfected cells; host or cells: CHO
Put plainly: mGluR1 IC50 determination, FLIPR intracellular calcium mobilization against Quisqualate. It counts as cell-based. As to conditions: CHO cell line stably expressing hmGluR1; against Quisqualate 1 μM (EC80); compounds added 10 minutes before; read-out: mGluR1 IC50. As to the method: A CHO cell line stably expressing hmGluR1 receptor was established. One day prior to assay, cells were split in growth media at concentration of 50,000 cells/well in a volume of 100 μl and seeded into black clear-bottom 96-well plates. After two to six hours, when cells were well attached to the plate, growth medium was replaced with assay medium (100 μL) consisting of DMEM high glucose, supplemented with GPT (1 U/mL) and sodium pyruvate, 1 mM. Following overnight incubation, medium was discarded and cells were loaded for 2 hours with dye from the Calcium 3 Assay Reagent Kit (Molecular Devices, # R8033), prepared according to manufacturers' instructions. […] Test compounds were added 10 minutes before Quisqualate.
As for `COc1ccnc2sc3c(=O)n(-c4ccc(Cl)cc4)ccc3c12` [16B], the pIC50 is 8.47.

As to `COc1ccnc2sc3c(=O)n(-c4ccc(C)cc4)ccc3c12` [16C], the negative-log IC50 (pIC50) is 8.41.

Take `COc1ccnc2sc3c(=O)n(-c4ccc(Br)cc4)ccc3c12` [16E]: the pIC50 is 8.32.

For `COc1ccc(-n2ccc3c(sc4nccc(NC5CC5)c43)c2=O)cc1F` [19AV], the pIC50 was 8.01.

Staying with this assay, now noted: CHO cell line stably expressing hmGluR1; against Quisqualate 1 μM (EC80); compounds added 10 minutes before; read-out: mGluR1 IC50 rating.
On to `CN(C)c1ccnc2sc3c(=O)n(-c4ccc(O)cc4)ccc3c12` [9H], for which the negative-log IC50 (pIC50) is above 7.70.

As for `COc1ccnc2sc3c(=O)n(-c4ccc(Cl)cc4)ccc3c12` [16B], the pIC50 was above 7.70.

Consider `COc1ccnc2sc3c(=O)n(-c4ccc(C)cc4)ccc3c12` [16C], for which the pIC50 is above 7.70.

With `COc1ccnc2sc3c(=O)n(-c4ccc(Br)cc4)ccc3c12` [16E], the pIC50 is above 7.70.

Take `COc1ccnc2sc3c(=O)n(-c4ccc5ncsc5c4)ccc3c12` [16F]: the pIC50 was 7.00 to 7.70.

For the compound `COc1ccnc2sc3c(=O)n(-c4ccc5scnc5c4)ccc3c12` [16G], the pIC50 was above 7.70.

`COc1ccnc2sc3c(=O)n(-c4ccc(F)cc4)ccc3c12` [16H]: the pIC50 was above 7.70.

For `COc1ccc(-n2ccc3c(sc4nccc(OC)c43)c2=O)cc1F` [16I], the pIC50 is above 7.70.

For `COc1ccnc2sc3c(=O)n(-c4ccccc4)ccc3c12` [16M], the pIC50 is above 7.70.

Turning to `COc1ccnc2sc3c(=O)n(-c4ccc5c(c4)OCO5)ccc3c12` [16O], the pIC50 is above 7.70.

Consider `COc1ccnc2sc3c(=O)n(-c4ccc5c(c4)OCCO5)ccc3c12` [16P], for which the pIC50 was 7.00 to 7.70.

Take `COc1ccnc2sc3c(=O)n(-c4ccc5occc5c4)ccc3c12` [16Q]: the pIC50 was above 7.70.

Turning to `COc1ccnc2sc3c(=O)n(-c4cccc(Cl)c4)ccc3c12` [16R], the pIC50 is above 7.70.

For `COc1ccnc2sc3c(=O)n(-c4cccc(C)c4)ccc3c12` [16T], the pIC50 was above 7.70.

With `COc1ccnc2sc3c(=O)n(-c4ccccc4Cl)ccc3c12` [16U], the pIC50 was 7.00 to 7.70.

In the case of `COc1ccnc2sc3c(=O)n(-c4ccc(C#N)cc4)ccc3c12` [16X], the pIC50 was 7.00 to 7.70.

Turning to `O=c1c2sc3nccc(O)c3c2ccn1-c1ccc(Cl)cc1` [17B], the pIC50 was 6.00 to 7.00.

Regarding `Cc1ccc(-n2ccc3c(sc4nccc(O)c43)c2=O)cc1` [17C], the pIC50 is 6.00 to 7.00.

For `COc1ccc(-n2ccc3c(sc4nccc(NCCCCO)c43)c2=O)cc1` [19AA], the pIC50 is 7.00 to 7.70.

With `Cc1ccc(-n2ccc3c(sc4nccc(N)c43)c2=O)cc1` [19AC], the pIC50 is 7.00 to 7.70.

Consider `C#CCNc1ccnc2sc3c(=O)n(-c4ccc(Cl)cc4)ccc3c12` [19AE], for which the pIC50 is above 7.70.

On to `C#CCNc1ccnc2sc3c(=O)n(-c4ccc(C)cc4)ccc3c12` [19AG], for which the negative-log IC50 (pIC50) was above 7.70.

In the case of `COc1ccc(-n2ccc3c(sc4nccc(NCCCCCO)c43)c2=O)cc1` [19AH], the pIC50 was 7.00 to 7.70.

Consider `CCNc1ccnc2sc3c(=O)n(-c4ccc(F)cc4)ccc3c12` [19AL], for which the pIC50 is 7.00 to 7.70.

With `O=c1c2sc3nccc(NC4CC4)c3c2ccn1-c1ccc(F)cc1` [19AM], the pIC50 is 7.00 to 7.70.

As for `C#CCNc1ccnc2sc3c(=O)n(-c4ccc(F)cc4)ccc3c12` [19AN], the pIC50 was 7.00 to 7.70.

Consider `C#CCNc1ccnc2sc3c(=O)n(-c4ccc(OC)c(F)c4)ccc3c12` [19AO], for which the negative logarithm of the IC50 (pIC50) was 6.00 to 7.00.

For `CCNc1ccnc2sc3c(=O)n(-c4ccc5scnc5c4)ccc3c12` [19AQ], the pIC50 is 7.00 to 7.70.

As to `O=c1c2sc3nccc(NC4CC4)c3c2ccn1-c1ccc2scnc2c1` [19AR], the pIC50 is 7.00 to 7.70.

Consider `CCNc1ccnc2sc3c(=O)n(-c4ccc(OC)c(F)c4)ccc3c12` [19AU], for which the pIC50 was above 7.70.

With `COc1ccc(-n2ccc3c(sc4nccc(NC5CC5)c43)c2=O)cc1F` [19AV], the pIC50 was above 7.70.

`C#CCNc1ccnc2sc3c(=O)n(-c4ccc(Br)cc4)ccc3c12` [19AZ]: the pIC50 was above 7.70.

`CCNc1ccnc2sc3c(=O)n(-c4ccc(C#N)cc4)ccc3c12` [19BB]: the pIC50 was 7.00 to 7.70.

For `N#Cc1ccc(-n2ccc3c(sc4nccc(NC5CC5)c43)c2=O)cc1` [19BC], the pIC50 is 7.00 to 7.70.

Consider `CCNc1ccnc2sc3c(=O)n(-c4ccc(OC)cc4F)ccc3c12` [19BG], for which the pIC50 is 7.00 to 7.70.

As to `COc1ccc(-n2ccc3c(sc4nccc(NC5CC5)c43)c2=O)c(F)c1` [19BH], the negative-log IC50 (pIC50) was 7.00 to 7.70.

Take `COCCNc1ccnc2sc3c(=O)n(-c4ccc(C)cc4)ccc3c12` [19C]: the pIC50 is 7.00 to 7.70.

Take `C[C@@H](O)CNc1ccnc2sc3c(=O)n(-c4ccc(Cl)cc4)ccc3c12` [19E]: the pIC50 is 7.00 to 7.70.

For `O=c1c2sc3nccc(NCCO)c3c2ccn1-c1ccc(Cl)cc1` [19F], the pIC50 is above 7.70.

For the compound `COCCNc1ccnc2sc3c(=O)n(-c4ccc(Cl)cc4)ccc3c12` [19G], the pIC50 is 7.00 to 7.70.

For `COCCCNc1ccnc2sc3c(=O)n(-c4ccc(Cl)cc4)ccc3c12` [19H], the pIC50 was 7.00 to 7.70.

`O=c1c2sc3nccc(NCC(F)(F)F)c3c2ccn1-c1ccc(Cl)cc1` [19I]: the pIC50 was 7.00 to 7.70.

For `COCCNc1ccnc2sc3c(=O)n(-c4ccc(O)cc4)ccc3c12` [19J], the pIC50 is below 6.00.

Consider `Cc1ccc(-n2ccc3c(sc4nccc(NCCO)c43)c2=O)cc1` [19L], for which the pIC50 was 7.00 to 7.70.

As to `Cc1ccc(-n2ccc3c(sc4nccc(NC[C@@H](C)O)c43)c2=O)cc1` [19M], the pIC50 is 7.00 to 7.70.

As to `Cc1ccc(-n2ccc3c(sc4nccc(NCC(F)(F)F)c43)c2=O)cc1` [19R], the pIC50 was 7.00 to 7.70.

For the compound `COc1ccc(-n2ccc3c(sc4nccc(NCC(F)(F)F)c43)c2=O)cc1` [19S], the negative logarithm of the IC50 (pIC50) was 7.00 to 7.70.

As for `COc1ccc(-n2ccc3c(sc4nccc(N(C)N)c43)c2=O)cc1` [19U], the pIC50 was above 7.70.

As to `COCCCNc1ccnc2sc3c(=O)n(-c4ccc(OC)cc4)ccc3c12` [19W], the pIC50 was 7.00 to 7.70.

In the case of `C#CCNc1ccnc2sc3c(=O)n(-c4ccc(OC)cc4)ccc3c12` [19X], the pIC50 was 7.00 to 7.70.

As to `COc1ccc(-n2ccc3c(sc4nccc(NCCCO)c43)c2=O)cc1` [19Y], the pIC50 is 7.00 to 7.70.

Take `COc1ncnc2sc3c(=O)n(-c4ccc(C)cc4)ccc3c12` [23A]: the pIC50 is above 7.70.

`COc1ccc(-n2ccc3c(sc4ncnc(OC)c43)c2=O)cc1` [23B]: the pIC50 was 6.00 to 7.00.

For `COc1ncnc2sc3c(=O)n(-c4ccc(Cl)cc4)ccc3c12` [23C], the pIC50 was 7.00 to 7.70.
